Test results reported in paper PMC8286840, “Identifying SARS-CoV-2 antiviral compounds by screening for small molecule inhibitors of Nsp3 papain-like protease” (Biochemical Journal, 2021).
Where a name gives a salt, the structure may show the parent alone. Read-outs that look alike come from different tables or passages of the source.

Assays:
[1] = target: T1, SARS-CoV-2 PLpro (nsp3 1564–1878) (Severe acute respiratory syndrome coronavirus 2, UniProt P0DTD1); test: biochemical; parameters: FRET-quenched peptide (Pro3) cleavage by PLpro, 10 min pre-incubation, slope over 20 min, normalised to no-compound control; conditions: read-out: % of control remaining
[2] = target: T1, SARS-CoV-2 PLpro (nsp3 1564–1878); test: biochemical; parameters: FRET-quenched peptide (Pro3) cleavage by PLpro, 10 min pre-incubation, slope over 20 min, normalised to no-compound control; conditions: read-out: % of control remaining; remark: listed apart in the source

In the case of `CC(C)c1nc(N(C)S(C)(=O)=O)nc(-c2ccc(F)cc2)c1/C=C/[C@@H](O)C[C@@H](O)CC(=O)O` [Rosuvastatin Calcium], the remaining activity at 3.75 µM ([1]; Well no.=8240, high concentration screen) is reported as 93.8% and the remaining activity at 1.25 µM ([2]; Well no.=8240, low concentration screen) is reported as 96.8%.

`Nc1ncnc2c1nc(N)n2[C@@H]1O[C@H](CO)[C@@H](O)[C@H]1O` [(2R,3R,4S,5R)-2-(6,8-diamino-9H-purin-9-yl)-5-(hydroxymethyl)tetrahydrofuran-3,4-diol] was tested, and the remaining activity at 3.75 µM ([1]; Well no.=5532, high concentration screen) was 105% and the remaining activity at 1.25 µM ([2]; Well no.=5532, low concentration screen) was 106%.

Work on `COc1cc(CCN)ccc1O` [3-Methoxytyramine] yielded a remaining activity at 3.75 µM ([1]; Well no.=6773, high concentration screen) of 97.4% and a remaining activity at 1.25 µM ([2]; Well no.=6773, low concentration screen) of 107%.

`N[C@@H](CCC(=O)N[C@@H](CS)C(=O)NCC(=O)O)C(=O)O` [Glutathione] gave a remaining activity at 3.75 µM ([1]; Well no.=4049, high concentration screen) of 100% and a remaining activity at 1.25 µM ([2]; Well no.=4049, low concentration screen) of 99.4%.

Molecule `CCCCCCCCOc1ccccc1C(=O)Nc1ccc(C(=O)OCC[N+](C)(CC)CC)cc1` [Otilonium (bromide)] has a remaining activity at 3.75 µM ([1]; Well no.=6315, high concentration screen) of 97.2% and a remaining activity at 1.25 µM ([2]; Well no.=6315, low concentration screen) of 103%.

In the case of `COc1cccc(N(C)C(=S)Oc2ccc3c(c2)CCCC3)n1` [Liranaftate], the remaining activity at 3.75 µM ([1]; Well no.=4672, high concentration screen) is reported as 101% and the remaining activity at 1.25 µM ([2]; Well no.=4672, low concentration screen) is reported as 101%.

Molecule `CC1(C)CC[C@]2(C(=O)O)CC[C@]3(C)C(=CC[C@@H]4[C@@]5(C)CC[C@H](O)C(C)(C)[C@@H]5CC[C@]43C)[C@@H]2C1` [Oleanolic acid] has a remaining activity at 3.75 µM ([1]; Well no.=3448, high concentration screen) of 91.6%, a remaining activity at 3.75 µM ([1]; Well no.=6443, high concentration screen) of 96.8% and a remaining activity at 1.25 µM ([2]; Well no.=3448, low concentration screen) of 96.1%. It also gave a remaining activity at 1.25 µM ([2]; Well no.=6443, low concentration screen) of 95.4%.

`Cc1ccccc1N1C(=O)c2cc(S(N)(=O)=O)c(Cl)cc2NC1C` (stereo not drawn) [Metolazone] gave a remaining activity at 3.75 µM ([1]; Well no.=943, high concentration screen) of 95.6%, a remaining activity at 3.75 µM ([1]; Well no.=8212, high concentration screen) of 90.4% and a remaining activity at 1.25 µM ([2]; Well no.=943, low concentration screen) of 102%. The remaining activity at 1.25 µM ([2]; Well no.=8212, low concentration screen) was 94.6%.

Work on `CO[C@]12C[C@@H](COC(=O)c3cncc(Br)c3)CN(C)[C@@H]1Cc1cn(C)c3cccc2c13` [Nicergoline] yielded a remaining activity at 3.75 µM ([1]; Well no.=1731, high concentration screen) of 102%, a remaining activity at 3.75 µM ([1]; Well no.=6958, high concentration screen) of 109% and a remaining activity at 1.25 µM ([2]; Well no.=1731, low concentration screen) of 99.4%. The remaining activity at 1.25 µM ([2]; Well no.=6958, low concentration screen) was 102%.

In the case of `NNC(=O)c1ccncc1` [Isoniazid], the remaining activity at 3.75 µM ([1]; Well no.=1744, high concentration screen) is reported as 103% and the remaining activity at 1.25 µM ([2]; Well no.=1744, low concentration screen) is reported as 101%.

`CCNC(=O)[C@H]1O[C@@H](n2cnc3c(N)ncnc32)[C@H](O)[C@@H]1O` [5'-N-Ethylcarboxamidoadenosine] showed a remaining activity at 3.75 µM ([1]; Well no.=694, high concentration screen) of 96%, a remaining activity at 3.75 µM ([1]; Well no.=7950, high concentration screen) of 96.2% and a remaining activity at 3.75 µM ([1]; Well no.=8119, high concentration screen) of 102%. It also gave a remaining activity at 1.25 µM ([2]; Well no.=694, low concentration screen) of 97.5%, a remaining activity at 1.25 µM ([2]; Well no.=7950, low concentration screen) of 95.4% and a remaining activity at 1.25 µM ([2]; Well no.=8119, low concentration screen) of 104%.

`CCCCCC[C@@H](O)C/C=C\CCCCCCCC(=O)O` [Ricinoleic acid] gave a remaining activity at 3.75 µM ([1]; Well no.=4484, high concentration screen) of 99.9% and a remaining activity at 1.25 µM ([2]; Well no.=4484, low concentration screen) of 102%.

In the case of `Cc1ccc(C(=O)Nc2cccc(C(F)(F)F)c2)cc1Nc1nc(-c2cccnc2)nc2c1cnn2C` [NVP-BHG712], the remaining activity at 3.75 µM ([1]; Well no.=4820, high concentration screen) is reported as 96.9% and the remaining activity at 1.25 µM ([2]; Well no.=4820, low concentration screen) is reported as 100%.

With `CC(C)COc1ccc(CNC(=O)N(Cc2ccc(F)cc2)C2CCN(C)CC2)cc1` [Pimavanserin tartrate] the remaining activity at 3.75 µM ([1]; Well no.=6989, high concentration screen) was 102% and the remaining activity at 1.25 µM ([2]; Well no.=6989, low concentration screen) was 103%.

`O=c1ccn([C@@H]2O[C@H](CO)[C@@H](O)[C@H]2O)c(=O)[nH]1` [Uridin] showed a remaining activity at 3.75 µM ([1]; Well no.=6399, high concentration screen) of 106%, a remaining activity at 3.75 µM ([1]; Well no.=8849, high concentration screen) of 94.8% and a remaining activity at 1.25 µM ([2]; Well no.=8849, low concentration screen) of 101%.

Molecule `COc1ccc(-c2ccc3cc(C(=O)O)ccc3c2)cc1[C@]12C[C@H]3C[C@H](C[C@H](C3)C1)C2` [Adapalene] has a remaining activity at 3.75 µM ([1]; Well no.=1939, high concentration screen) of 103% and a remaining activity at 1.25 µM ([2]; Well no.=1939, low concentration screen) of 99.2%.

Molecule `O=C(c1ccccc1)c1ccc(N2CCOCC2)cc1O` [DNA-PK Inhibitor V] has a remaining activity at 3.75 µM ([1]; Well no.=2657, high concentration screen) of 101% and a remaining activity at 1.25 µM ([2]; Well no.=2657, low concentration screen) of 95.5%.

`CC[C@H]1OC(=O)[C@H](C)[C@@H](O[C@H]2C[C@@](C)(OC)[C@@H](O)[C@H](C)O2)[C@H](C)[C@@H](O[C@@H]2O[C@H](C)C[C@H](N(C)C)[C@H]2O)[C@](C)(OC)C[C@@H](C)C(=O)[C@H](C)[C@@H](O)[C@]1(C)O` [Clarithromycin] was tested, and the remaining activity at 3.75 µM ([1]; Well no.=2267, high concentration screen) was 89.2% and the remaining activity at 1.25 µM ([2]; Well no.=2267, low concentration screen) was 89%.

With `O=C(O)CCc1ccccc1` [Hydrocinnamic acid] the remaining activity at 3.75 µM ([1]; Well no.=6731, high concentration screen) was 96.7% and the remaining activity at 1.25 µM ([2]; Well no.=6731, low concentration screen) was 98.5%.

`Oc1ccc(-c2c(-c3ccccc3)nn3c(C(F)(F)F)cc(C(F)(F)F)nc23)cc1` [PHTPP] showed a remaining activity at 3.75 µM [1] of 101% and a remaining activity at 1.25 µM [2] of 103%.

With `C[C@@]1(c2cc(-c3cncnc3)c(F)cc2F)CCSC(N)=N1` [LY2811376] the remaining activity at 3.75 µM ([1]; Well no.=4949, high concentration screen) was 103% and the remaining activity at 1.25 µM ([2]; Well no.=4949, low concentration screen) was 101%.

`O=C(NCCNCC(O)COc1ccc(O)cc1)N1CCOCC1` (stereo not drawn) [Xamoterol hemifumarate] was tested, and the remaining activity at 3.75 µM ([1]; Well no.=1436, high concentration screen) was 95.1%, the remaining activity at 3.75 µM ([1]; Well no.=1741, high concentration screen) was 103% and the remaining activity at 1.25 µM ([2]; Well no.=1436, low concentration screen) was 95.5%. The remaining activity at 1.25 µM ([2]; Well no.=1741, low concentration screen) was 102%.

Work on `CC1=C(/C=C/C(C)=C/C=C/C(C)=C\C(=O)O)C(C)(C)CCC1` [13-cis-retinoic acid] yielded a remaining activity at 3.75 µM ([1]; Well no.=1348, high concentration screen) of 101% and a remaining activity at 1.25 µM ([2]; Well no.=1348, low concentration screen) of 95.9%.

With `CCCC[C@H](N)C(=O)O` [L-Norleucine] the remaining activity at 3.75 µM ([1]; Well no.=7733, high concentration screen) was 106% and the remaining activity at 1.25 µM ([2]; Well no.=7733, low concentration screen) was 103%.

`CC(C)C[C@H](NC(=O)[C@H](O)[C@H](N)Cc1ccccc1)C(=O)O` [Epibestatin hydrochloride] showed a remaining activity at 3.75 µM ([1]; Well no.=692, high concentration screen) of 93.6% and a remaining activity at 1.25 µM ([2]; Well no.=692, low concentration screen) of 96.8%.

For `CCN(CC)CCOc1ccc(C(=C(Cl)c2ccccc2)c2ccccc2)cc1` [Clomiphene], the remaining activity at 3.75 µM ([1]; Well no.=2273, high concentration screen) was 96.3% and the remaining activity at 1.25 µM ([2]; Well no.=2273, low concentration screen) was 96.5%.

`CCCCNc1ccc(C(=O)OCCN(C)C)cc1` [Tetracaine hydrochloride] showed a remaining activity at 3.75 µM ([1]; Well no.=1228, high concentration screen) of 97.5% and a remaining activity at 1.25 µM ([2]; Well no.=1228, low concentration screen) of 97.1%.

With `Nc1nc(Cl)nc2c1ncn2[C@@H]1O[C@H](COP(=O)(O)OP(=O)(O)OP(=O)(O)O)[C@H](O)C1O` (stereo partly drawn) [2-Chloroadenosine triphosphate tetrasodium] the remaining activity at 3.75 µM ([1]; Well no.=535, high concentration screen) was 102% and the remaining activity at 1.25 µM ([2]; Well no.=535, low concentration screen) was 100%.

`OC[C@@H](O)[C@@H](O)[C@H](O)[C@@H](O)CO` [D-Sorbitol] gave a remaining activity at 3.75 µM ([1]; Well no.=6253, high concentration screen) of 112% and a remaining activity at 1.25 µM ([2]; Well no.=6253, low concentration screen) of 115%.

Molecule `Oc1c2ccccc2c2c3c(cccc13)N=N2` [SP 600125 - Anthra[1-9-cd]pyrazol-6(2H)-one] has a remaining activity at 3.75 µM ([1]; Well no.=2432, high concentration screen) of 105% and a remaining activity at 1.25 µM ([2]; Well no.=2432, low concentration screen) of 96.1%.

`Cc1sc2c(c1C)C(c1ccc(Cl)cc1)=N[C@@H](CC(N)=O)c1nnc(C)n1-2` [CPI203] gave a remaining activity at 3.75 µM ([1]; Well no.=5824, high concentration screen) of 98% and a remaining activity at 1.25 µM ([2]; Well no.=5824, low concentration screen) of 99.9%.
